In patent publication EP1976513B1 (priority 2006, dated 2007):
“And” between values parts separate entries of the source, which are not always exact repeats. Equal values may be shown once. Read-outs that look alike come from different tables or passages of the source.

Assays:
[1] = target: human serotonin reuptake transporter (Homo sapiens, UniProt P31645); assay: cell-based
[2] = target: T1, human dopamine reuptake transporter (Homo sapiens, UniProt Q01959); assay: cell-based
T1 construct: expressed in transfected cells; host or cells: CHO-K1 or HEK293
T1 sequence (Q01959 whole entry): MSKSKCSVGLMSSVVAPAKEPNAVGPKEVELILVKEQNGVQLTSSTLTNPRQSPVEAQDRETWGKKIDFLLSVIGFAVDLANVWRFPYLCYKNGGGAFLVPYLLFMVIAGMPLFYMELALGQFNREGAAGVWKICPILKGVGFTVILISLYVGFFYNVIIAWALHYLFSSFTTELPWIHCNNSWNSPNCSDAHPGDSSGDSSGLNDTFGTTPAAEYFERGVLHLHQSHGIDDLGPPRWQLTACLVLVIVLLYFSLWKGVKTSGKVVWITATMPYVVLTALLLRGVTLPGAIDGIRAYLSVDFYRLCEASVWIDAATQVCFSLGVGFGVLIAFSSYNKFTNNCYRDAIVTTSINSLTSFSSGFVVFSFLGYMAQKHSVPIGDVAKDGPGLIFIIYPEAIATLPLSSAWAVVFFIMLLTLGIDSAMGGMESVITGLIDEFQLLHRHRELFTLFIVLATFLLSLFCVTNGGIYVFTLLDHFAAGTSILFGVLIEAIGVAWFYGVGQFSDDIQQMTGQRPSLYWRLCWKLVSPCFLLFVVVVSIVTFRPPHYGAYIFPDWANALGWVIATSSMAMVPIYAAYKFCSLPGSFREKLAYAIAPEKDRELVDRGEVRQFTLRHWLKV

[3] = target: T2, 5-HT Transporter (SERT) Sites in Mouse Brain (Mus musculus, UniProt Q60857); assay: Ex vivo [3H] citalopram binding after oral dosing; parameters: species or system C57BL/6 mice; details: for % Transporter Occupancy, SERT: 60 minutes after treatment, vs vehicle; for Mean Specific Binding (dpm) ± S.E.M., SERT: mice sacrificed 60 minutes after treatment, cortex
T2 construct: Whole brains were removed and cortex and striata dissected out; from tissue; host or cells: C57BL/6 mouse frontal cortex homogenate
T2 sequence (Q60857 whole entry): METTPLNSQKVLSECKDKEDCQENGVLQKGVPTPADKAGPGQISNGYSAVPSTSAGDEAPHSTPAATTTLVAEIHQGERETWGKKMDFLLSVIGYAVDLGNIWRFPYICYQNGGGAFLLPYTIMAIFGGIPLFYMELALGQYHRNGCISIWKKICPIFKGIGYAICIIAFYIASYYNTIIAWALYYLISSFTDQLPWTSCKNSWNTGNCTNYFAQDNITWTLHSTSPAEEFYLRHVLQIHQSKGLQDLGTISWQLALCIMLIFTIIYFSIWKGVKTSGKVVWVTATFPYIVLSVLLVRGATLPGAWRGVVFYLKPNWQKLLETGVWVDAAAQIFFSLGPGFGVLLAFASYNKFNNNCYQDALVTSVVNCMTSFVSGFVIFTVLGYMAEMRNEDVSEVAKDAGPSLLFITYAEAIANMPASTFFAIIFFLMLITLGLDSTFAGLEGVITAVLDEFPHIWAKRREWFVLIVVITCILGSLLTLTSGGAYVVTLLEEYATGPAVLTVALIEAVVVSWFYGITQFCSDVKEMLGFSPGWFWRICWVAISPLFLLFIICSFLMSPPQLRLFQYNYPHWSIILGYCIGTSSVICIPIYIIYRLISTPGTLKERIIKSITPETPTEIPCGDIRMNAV

[4] = target: T3, DA Transporter (DAT) Sites in Mouse Brain (Mus musculus, UniProt Q61327); assay: Ex vivo [3H] WIN 35428 binding after oral dosing; parameters: species or system C57BL/6 mice; details: for % Transporter Occupancy, DAT: 60 minutes after treatment, vs vehicle; for Mean Specific Binding (dpm) ± S.E.M., DAT: mice sacrificed 60 minutes after treatment, striatum
T3 construct: Striatum was used to determine occupancy of DA transporter sites; from tissue; host or cells: C57BL/6 mouse striatum homogenate
T3 sequence (Q61327 whole entry): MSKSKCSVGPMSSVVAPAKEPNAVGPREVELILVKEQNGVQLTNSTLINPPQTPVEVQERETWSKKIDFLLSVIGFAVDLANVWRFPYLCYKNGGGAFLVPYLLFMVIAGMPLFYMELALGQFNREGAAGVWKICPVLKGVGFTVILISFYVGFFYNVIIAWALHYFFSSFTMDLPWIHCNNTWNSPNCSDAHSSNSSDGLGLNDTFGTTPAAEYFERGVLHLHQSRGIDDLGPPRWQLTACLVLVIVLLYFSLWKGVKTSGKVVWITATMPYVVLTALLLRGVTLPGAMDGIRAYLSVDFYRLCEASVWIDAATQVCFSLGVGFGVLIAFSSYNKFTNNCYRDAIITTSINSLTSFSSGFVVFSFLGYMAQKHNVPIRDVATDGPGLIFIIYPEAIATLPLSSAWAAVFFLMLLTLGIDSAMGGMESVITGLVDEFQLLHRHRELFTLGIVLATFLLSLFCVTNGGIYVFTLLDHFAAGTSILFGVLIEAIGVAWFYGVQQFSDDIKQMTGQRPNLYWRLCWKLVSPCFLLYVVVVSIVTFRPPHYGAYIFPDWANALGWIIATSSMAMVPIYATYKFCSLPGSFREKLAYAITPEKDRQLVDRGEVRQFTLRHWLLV

mice = assay: Mouse locomotor activity; assay type: in vivo; details: PO
Description: In order to ensure effects of the compounds on immobility time were not related to a general stimulant effect on baseline motor activity, locomotor activity was assessed using photocell monitored cages (Med-Associates Inc.). Each test chamber was equipped with infrared photocell beams to measure movement of the animals. Horizontal and vertical activity were measured
Rats or mice were pretreated with vehicle or test compounds and placed back in home cage, following which they will be individually placed in locomotor cages and activity was monitored in 5 minute intervals for up to 60 min.
Data were analyzed by one way analysis of variance (ANOVA) followed by post-hoc comparisons where appropriate. An effect was considered significant if p < 0.05. Data are represented as the mean and standard error to the mean (s.e.m).

[5] = target: Norepinephrine Transporter (NET) Sites in Mouse Brain (Mus musculus, UniProt O55192); details: PO; for % Transporter Occupancy, NET: 60 minutes after treatment, vs vehicle; for Mean Specific Binding (dpm) ± S.E.M., NET: mice sacrificed 60 minutes after treatment, cortex
Chain of Norepinephrine Transporter (NET) Sites in Mouse Brain (O55192 whole entry): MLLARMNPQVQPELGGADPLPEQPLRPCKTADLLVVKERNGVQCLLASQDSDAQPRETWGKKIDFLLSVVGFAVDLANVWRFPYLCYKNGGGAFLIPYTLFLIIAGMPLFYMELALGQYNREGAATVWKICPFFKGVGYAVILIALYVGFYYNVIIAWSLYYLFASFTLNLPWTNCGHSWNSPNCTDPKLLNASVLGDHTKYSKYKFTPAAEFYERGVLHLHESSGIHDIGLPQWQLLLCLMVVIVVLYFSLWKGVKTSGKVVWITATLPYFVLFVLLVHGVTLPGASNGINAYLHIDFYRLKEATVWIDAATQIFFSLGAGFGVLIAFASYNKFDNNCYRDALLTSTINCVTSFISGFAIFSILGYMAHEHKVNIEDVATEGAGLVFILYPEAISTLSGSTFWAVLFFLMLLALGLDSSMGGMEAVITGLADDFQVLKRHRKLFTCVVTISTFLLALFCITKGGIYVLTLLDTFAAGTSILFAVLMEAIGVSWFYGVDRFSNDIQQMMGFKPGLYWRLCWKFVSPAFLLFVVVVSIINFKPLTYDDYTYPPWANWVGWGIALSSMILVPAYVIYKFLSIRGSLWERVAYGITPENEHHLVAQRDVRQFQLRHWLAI

[6] = recombinant human serotonin transporter (SERT), read-out: Human IC50 (nM) hSERT
[7] = recombinant human dopamine transporter (DAT), read-out: Human IC50 (nM) hDAT
[8] = read-out: Human IC50 (nM) hSERT
[9] = Human IC50 (nM) hSERT, recombinant human serotonin transporter (SERT)

Chain of human serotonin reuptake transporter (P31645 whole entry): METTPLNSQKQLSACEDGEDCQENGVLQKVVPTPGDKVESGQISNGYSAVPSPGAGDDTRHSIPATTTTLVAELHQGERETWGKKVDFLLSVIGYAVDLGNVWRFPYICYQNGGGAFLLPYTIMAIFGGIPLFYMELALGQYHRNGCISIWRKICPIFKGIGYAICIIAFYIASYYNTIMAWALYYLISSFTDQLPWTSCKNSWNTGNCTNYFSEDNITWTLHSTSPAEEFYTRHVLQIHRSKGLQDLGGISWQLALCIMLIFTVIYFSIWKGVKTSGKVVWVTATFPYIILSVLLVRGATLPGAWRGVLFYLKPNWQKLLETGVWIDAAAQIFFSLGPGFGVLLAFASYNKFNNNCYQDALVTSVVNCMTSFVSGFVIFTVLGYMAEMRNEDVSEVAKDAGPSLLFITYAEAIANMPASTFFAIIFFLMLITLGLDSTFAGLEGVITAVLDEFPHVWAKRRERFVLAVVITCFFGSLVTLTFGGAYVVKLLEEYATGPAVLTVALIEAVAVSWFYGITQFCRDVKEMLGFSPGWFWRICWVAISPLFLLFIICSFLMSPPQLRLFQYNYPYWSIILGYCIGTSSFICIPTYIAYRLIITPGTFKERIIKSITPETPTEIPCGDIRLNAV

CN(C)CC1(c2ccc3ccccc3c2)CCC(O)(CF)CC1 (stereo not drawn) [Compound 246, 4-((dimethylamino)methyl)-1-(fluoromethyl)-4-(naphthalen-2-yl)cyclohexanol]
IC50 [1, 6]: 43 nM
IC50 [2, 7]: 282 nM

CN(C)CC1(c2ccc(OC(F)(F)F)cc2)CCC(C)(O)CC1 (stereo not drawn) [Compound 248, 4-((dimethylamino)methyl)-1-methyl-4-(4-(trifluoromethoxy)phenyl)cyclohexanol]
IC50 [1, 6]: 159 nM
IC50 [2, 7]: 7250 nM

CNCC1(c2ccc3ccccc3c2)CCC(F)(F)CC1 [Compound 251, 1-(4,4-difluoro-1-(naphthalen-2-yl)cyclohexyl)-N-methylmethanamine]
IC50 [1, 6]: 199 nM
IC50 [2, 7]: 107 nM

CN(C)CC1(c2ccc3ccccc3c2)CCC(F)(F)CC1 [Compound 252, 1-(4,4-difluoro-1-(naphthalen-2-yl)cyclohexyl)-N,N-dimethylmethanamine]
IC50 [1, 6]: 11 nM and 12 nM
IC50 [2, 7]: 6 nM and 5 nM

COC1CCC(CN)(c2ccc(Cl)c(Cl)c2)CC1 (stereo not drawn) [Compound 255, (1-(3,4-dichlorophenyl)-4-methoxycyclohexyl)methanamine]
IC50 [1, 6]: 1420 nM
IC50 [2, 7]: 170 nM

COC1CCC(CN)(c2ccc(Cl)c(Cl)c2)CC1 (stereo not drawn) [Compound 257, (1-(3,4-dichlorophenyl)-4-methoxycyclohexyl)methanamine]
IC50 [1, 6]: 2080 nM
IC50 [2, 7]: 2000 nM

CNCC1(c2ccc(Cl)c(Cl)c2)CCC(OC)CC1 (stereo not drawn) [Compound 259, 1-(1-(3,4-dichlorophenyl)-4-methoxycyclohexyl)-N-methylmethanamine]
IC50 [1, 6]: 5890 nM
IC50 [2, 7]: 665 nM

CN(C)CC1(c2ccc(Cl)c(Cl)c2)CCC(F)CC1 (stereo not drawn) [Compound 261, 1-(1-(3,4-dichlorophenyl)-4-fluorocyclohexyl)-N,N-dimethylmethanamine]
IC50 [1, 8]: 30 nM
IC50 ([2]; Human IC50 (nM) hDAT): 7 nM

NCC1(c2ccc(Cl)c(Cl)c2)CCC(O)CC1 (stereo not drawn) [Compound 262, 4-(aminomethyl)-4-(3,4-dichlorophenyl)cyclohexanol]
IC50 [1, 8]: > 10000 nM
IC50 [2, 7]: 4280 nM

CN(C)CC1(c2ccc(Cl)c(Cl)c2)CCC(O)CC1 (stereo not drawn) [Compound 263, 4-(3,4-dichlorophenyl)-4-((dimethylamino)methyl)cyclohexanol]
IC50 [1, 6]: 674 nM
IC50 [2, 7]: 498 nM

CNCC1(c2ccc(Cl)c(Cl)c2)CCC(F)CC1 (stereo not drawn) [Compound 264, 1-(1-(3,4-dichlorophenyl)-4-fluorocyclohexyl)-N-methylmethanamine]
IC50 [1, 6]: 1050 nM
IC50 [2, 7]: 17 nM

NCC1(c2ccc(Cl)c(Cl)c2)CCC(Oc2ccccc2)CC1 (stereo not drawn) [Compound 265, (1-(3,4-dichlorophenyl)-4-phenoxycyclohexyl)methanamine]
IC50 [1, 6]: 109 nM
IC50 [2, 7]: 1450 nM

CN(C)CC1(c2ccc(Cl)c(Cl)c2)CCC(Oc2ccccc2)CC1 (stereo not drawn) [Compound 266, 1-(1-(3,4-dichlorophenyl)-4-phenoxycyclohexyl)-N,N-dimethylmethanamine]
IC50 [1, 8]: 168 nM
IC50 ([2]; read-out: Human IC50 (nM) hDAT): 859 nM

NCC1(c2ccc(Cl)c(Cl)c2)CCC(F)(F)CC1 [Compound 267, (1-(3,4-dichlorophenyl)-4,4-difluorocyclohexyl)methanamine]
IC50 [1, 6]: 1290 nM
IC50 [2, 7]: 147 nM

CNCC1(c2ccc(Cl)c(Cl)c2)CCC2(CC1)OCCO2 [Compound 270, 1-(8-(3,4-dichlorophenyl)-1,4-dioxaspiro[4.5]decan-8-yl)-N-methylmethanamine]
IC50 [1, 6]: 469 nM
IC50 [2, 7]: 376 nM

CN(C)CC1(c2ccc(Cl)c(Cl)c2)CCC2(CC1)OCCO2 [Compound 271, 1-(8-(3,4-dichlorophenyl)-1,4-dioxaspiro[4.5]decan-8-yl)-N,N-dimethylmethanamine]
IC50 [1, 8]: 79 nM
IC50 [2, 7]: 197 nM

CNCC1(c2ccc(Cl)c(Cl)c2)CCC(C)(O)CC1 (stereo not drawn) [Compound 273, 4-(3,4-dichlorophenyl)-1-methyl-4-((methylamino)methyl)cyclohexanol]
IC50 [1, 6]: 830 nM
IC50 [2, 7]: 528 nM

CN(C)CC1(c2ccc(Cl)c(Cl)c2)CCC(C)(O)CC1 (stereo not drawn) [Compound 274, 4-(3,4-dichlorophenyl)-4-((dimethylamino)methyl)-1-methylcyclohexanol]
IC50 [1, 6]: 809 nM
IC50 [2, 7]: 251 nM

CNCC1(c2ccc(Cl)c(Cl)c2)CCC(C)(O)CC1 (stereo not drawn) [Compound 276, 4-(3,4-dichlorophenyl)-1-methyl-4-((methylamino)methyl)cyclohexanol]
IC50 [1, 6]: 210 nM
% Transporter Occupancy, SERT ([3]; 1 mg/kg): 12%
Mean Specific Binding (dpm) ± S.E.M., SERT ([3]; 1 mg/kg): 3743 ± 199 dpm
% Transporter Occupancy, SERT ([3]; 3 mg/kg): 14%
Mean Specific Binding (dpm) ± S.E.M., SERT ([3]; 3 mg/kg): 3685 ± 292 dpm
% Transporter Occupancy, SERT ([3]; 10 mg/kg): 28%
Mean Specific Binding (dpm) ± S.E.M., SERT ([3]; 10 mg/kg): 3092 ± 207 dpm
% Transporter Occupancy, SERT ([3]; 30 mg/kg): 64%
Mean Specific Binding (dpm) ± S.E.M., SERT ([3]; 30 mg/kg): 1558 ± 169 dpm
% Transporter Occupancy, DAT ([4]; 1 mg/kg): -21%
% Transporter Occupancy, DAT ([4]; 3 mg/kg): -9%
Mean Specific Binding (dpm) ± S.E.M., DAT ([4]; 3 mg/kg): 16312 ± 2396 dpm
% Transporter Occupancy, DAT ([4]; 10 mg/kg): -6%
Mean Specific Binding (dpm) ± S.E.M., DAT ([4]; 10 mg/kg): 15879 ± 2265 dpm
% Transporter Occupancy, DAT ([4]; 30 mg/kg): 31%
Mean Specific Binding (dpm) ± S.E.M., DAT ([4]; 30 mg/kg): 10397 ± 931 dpm
Mouse Locomotor Activity Total Distance Traveled ± S.E.M. (mice; 3 mg/kg): 625.9 ± 47.5
Mouse Locomotor Activity Total Distance Traveled ± S.E.M. (mice; 10 mg/kg): 382.4 ± 63.4
Mouse Locomotor Activity Total Distance Traveled ± S.E.M. (mice; 30 mg/kg): 607.8 ± 57.8
% Transporter Occupancy, NET ([5]; 1 mg/kg): -4%
Mean Specific Binding (dpm) ± S.E.M., NET ([5]; 1 mg/kg): 1602 ± 51 dpm
% Transporter Occupancy, NET ([5]; 3 mg/kg): -6%
Mean Specific Binding (dpm) ± S.E.M., NET ([5]; 3 mg/kg): 1631 ± 92 dpm
% Transporter Occupancy, NET ([5]; 10 mg/kg): -1%
Mean Specific Binding (dpm) ± S.E.M., NET ([5]; 10 mg/kg): 1553 ± 27 dpm
% Transporter Occupancy, NET ([5]; 30 mg/kg): 26%
Mean Specific Binding (dpm) ± S.E.M., NET ([5]; 30 mg/kg): 1138 ± 59 dpm

CCC1(O)CCC(CN)(c2ccc(Cl)c(Cl)c2)CC1 (stereo not drawn) [Compound 278, 4-(aminomethyl)-4-(3,4-dichlorophenyl)-1-ethylcyclohexanol]
IC50 [1, 6]: 5140 nM
IC50 [2, 7]: 3190 nM

CCC1(O)CCC(CN(C)C)(c2ccc(Cl)c(Cl)c2)CC1 (stereo not drawn) [Compound 280, 4-(3,4-dichlorophenyl)-4-((dimethylamino)methyl)-1-ethylcyclohexanol]
IC50 [1, 6]: 7 nM
IC50 [2, 7]: 242 nM

CCC1(O)CCC(CN)(c2ccc(Cl)c(Cl)c2)CC1 (stereo not drawn) [Compound 281, 4-(aminomethyl)-4-(3,4-dichlorophenyl)-1-ethylcyclohexanol]
IC50 [1, 6]: 256 nM
IC50 [2, 7]: 384 nM

CCC1(O)CCC(CN(C)C)(c2ccc(Cl)c(Cl)c2)CC1 (stereo not drawn) [Compound 283, 4-(3,4-dichlorophenyl)-4-((dimethylamino)methyl)-1-ethylcyclohexanol]
IC50 [1, 6]: 20 nM
IC50 [2, 7]: 37 nM

CCCC1(O)CCC(CN)(c2ccc(Cl)c(Cl)c2)CC1 (stereo not drawn) [Compound 284, 4-(aminomethyl)-4-(3,4-dichlorophenyl)-1-propylcyclohexanol]
IC50 [1, 6]: 7900 nM
IC50 [2, 7]: 2460 nM

CCCC1(O)CCC(CNC)(c2ccc(Cl)c(Cl)c2)CC1 (stereo not drawn) [Compound 285, 4-(3,4-dichlorophenyl)-4-((methylamino)methyl)-1-propylcyclohexanol]
IC50 [1, 6]: 1140 nM
IC50 [2, 7]: 1900 nM

CCCC1(O)CCC(CN(C)C)(c2ccc(Cl)c(Cl)c2)CC1 (stereo not drawn) [Compound 286, 4-(3,4-dichlorophenyl)-4-((dimethylamino)methyl)-1-propylcyclohexanol]
IC50 [1, 8]: 46 nM
IC50 [2, 7]: 198 nM

CNCC1(c2ccc(Cl)c(Cl)c2)CCC(=O)CC1 [Compound 289, 4-(3,4-Dichloro-phenyl)-4-methylaminomethyl-cyclohexanone]
IC50 [1, 6]: 469 nM
IC50 [2, 7]: 282 nM

Clc1ccc(C2(C3CCCN3)CCCCC2)cc1Cl (stereo not drawn) [Compound 296, 2-(1-(3,4-dichlorophenyl)cyclohexyl)pyrrolidine]
IC50 [1, 6]: 73 nM
IC50 [2, 7]: 27 nM

c1ccc2cc(C3(C4CCCN4)CCCCC3)ccc2c1 (stereo not drawn) [Compound 297, 2-(1-(naphthalen-2-yl)cyclohexyl)pyrrolidine]
IC50 [1, 6]: 40 nM
IC50 [2, 7]: 13 nM

NCC1(c2ccc(Cl)c(Cl)c2)CCC(O)C1 (stereo not drawn) [cis 167, 3-(aminomethyl)-3-(3,4-dichlorophenyl)cyclopentanol]
IC50 [1, 9]: > 10000 nM
IC50 [2, 7]: 2220 nM

NCC1(c2ccc(Cl)c(Cl)c2)CCC(O)C1 (stereo not drawn) [trans 167, 3-(aminomethyl)-3-(3,4-dichlorophenyl)cyclopentanol]
IC50 [1, 9]: 4910 nM
IC50 [2, 7]: 145 nM
